Here are results for 5 molecules from US20160367497A1, “METHODS AND COMPOSITIONS FOR TREATING NEUROPATHIES” (Washington University, priority 2007, published 2016).

The test system of assay [1] is AMPK. Briefly: AMPK phosphorylation in Neuro2a cells (phospho-specific western blot). The settings on record: for effect on resveratrol-mediated activation of AMPK (AMPK and ACC phosphorylation): resveratrol 10 μM, 2 h, sirtinol 10 μM, splitomycin 10 μM, nicotinamide 10 mM, STO 609 2.5 μM. Format: cell-based. The protocol:
FIG. 10A-D illustrates resveratrol activation of AMP kinase in Neuro2a cells. Neuro2a cells were switched to serum-starvation medium (medium containing 0.2% FCS) and treated with DMSO (vehicle control), resveratrol (10 μM) or 5-aminoimidazole-4-carboxamide-1-β-D-ribofuranoside (AICAR) (1 mM). […] Very low levels of phosphorylated AMPK and ACC were detected in DMSO treated control cells at all time points tested. (C) Densitometric analysis of changes in phosphorylated AMPK and (D) phosphorylated ACC under different conditions is shown.
(§1) Cell culture and Reagents. Neuro2 cells obtained from ATCC were grown in MEM with 1.5 g/L sodium bicarbonate, 0.1 mM nonessential amino acids, 0.1 mM sodium pyruvate, 2 mM L-glutamine with 10% FCS. For differentiation, cells were switched to serum-starvation medium (containing 0.2% FCS). For neurite outgrowth measurements, experiments were done in quadruplicate and 100 neurites per well were randomly measured using the Metamorph software. Dorsal root ganglia sensory and cortical neurons were established from E13.5 mouse embryos, maintained in neurobasal medium supplemented with B27 (and NGF for DRG neurons) and infected with lentiviruses as described (Araki et al., 2004, Science 305:1010-1013; Hawley et al., 2005, Cell Metab 2:21-23). Resveratrol was a gift from Sirtris Pharmaceuticals (Cambridge Mass.) and AICAR was obtained from Toronto Research (North York, Canada). Splitomycin and Compound C were purchased from Biomol (Plymouth Meeting, Pa.) and Calbiochem (San Diego, Calif.). Sirtinol and nicotinamide were purchased from Sigma (Saint Louis, Mo.)
(§2) Plasmids and viruses. The dominant negative (dnAMPK) and constitutively active (caAMPK) plasmids were gifts from Russell Jones (University of Pennsylvania, Philadelphia Pa.), and pCXN-Cre was a gift of Inder Verma (Salk Institute, San Diego, Calif.). All constructs were subcloned into the lentiviral shuttle vector FCIV and verified by nucleotide sequence analysis. Viruses were prepared as previously described (Araki et al., 2004, Science 305:1010-1013). Protein and mRNA analysis. Immunoprecipitations and western blot analysis were performed by standard methods using antibodies directed against total AMPK, phosphorylated AMPK, total ACC or phosphorylated ACC that were obtained from Cell Signaling Technology (Beverley, Mass.). The phospho-AMPK antibody detects endogenous AMPK α1 and α2 when phosphorylated at threonine 172. The LKB1 antibody was purchased from Upstate (Lake Placid, N.Y.). Quantitative RT-PCR analysis was performed using Sybr-Green methodology on a model 7700 instrument (Applied Biosystems) as previously described (Araki et al., 2004, Science 305:1010-1013). Primer sequences were those used in previous studies (Motoshima, et al., 2006, J Physiol 574:63-71).
To explore the role of polyphenols, in particular, of resveratrol, we tested whether resveratrol altered the activity of AMPK in neuronal cells. Neuro2a neuroblastoma cells were treated with resveratrol (10 μM) and AMPK activation was examined using phospho-AMPK specific antibodies. […] To confirm that AMPK activation by resveratrol results in typical AMPK-mediated downstream responses, we monitored phosphorylation of ACC (acetyl Co-A carboxylase), a primary target of activated AMPK. […] To examine a potential mechanism of resveratrol-mediated AMPK activation, we measured cellular ATP levels as a decreased ATP:AMP ratio increases the phosphorylation of AMPK. ATP levels were monitored using a luciferase-based assay in neuro2A cells treated with resveratrol or Oligomycin, an inhibitor of mitochondrial oxidative phosphorylation and therefore ATP production. While the ATP concentration dropped from 5.874 μM in DMSO-treated cells (control) to 0.976 μM in Oligomycin treated cells within 2 hr, the ATP concentration in resveratrol-treated Neuro2a cells was not altered from control either at 2 hr (6.33 μM) or 24 hr (6.42 μM).

Assay [2] deals with AMPK. Briefly: AMPK and ACC phosphorylation in DRG sensory neurons. Format: cell-based, mouse. The settings on record: for effect on resveratrol-induced AMPK phosphorylation: DRG neurons, resveratrol 10 μM, 2 h.
Text: (A) Embryonic DRG neurons from Lkb1 flox/flox mice were infected with lentivirus expressing Cre recombinase (FCIV-Cre) or GFP only (FUGW control). Lentiviral infection was monitored by GFP fluorescence (A). […] Lkb1 flox/flox DRG neurons were infected with FUGW or FCIV-Cre and treated as indicated. AMPK or ACC was immunoprecipitated from neuronal lysates and western blots were probed with the respective phospho-specific antibodies. […] No inhibition of AMPK or ACC phosphorylation was observed by treatment with SIRT1 or CaMKKβ inhibitors. Lysate from AICAR treated DRG neurons was included as a positive control. (E, F) Embryonic DRG neurons were cultured from wild type and SIRT1-deficient littermates derived from SIRT1 heterozygous matings. […] Levels of total AMPK and ACC are shown in the bottom panels of C, D, E and F. Densitometric analysis of changes in levels of phospho AMPK (G) and phospho ACC (H) in SIRT1+/+ and SIRT1−/− DRG neurons in presence and absence of resveratrol is shown. Note: Resv, resveratrol.
as §1, §2
Resveratrol activation of AMPK in Neuro2a cells along with the crucial role of AMPK in promoting neurite outgrowth in these cells encouraged us to examine this pathway in primary neurons. […]

For assay [3], the system named is AMPK. Briefly: AMPK and ACC phosphorylation in cortical neurons. It counts as cell-based, mouse. The settings on record: for effect on resveratrol-induced AMPK phosphorylation: cortical neurons, resveratrol 10 μM, 2 h.
Text: FIG. 16A-F illustrates that resveratrol activates AMP kinase in cortical neurons through Lkb1 and CaMKKβ. (A) Cortical neuron cultures were established from E 13.5 Lkb1 flox/flox embryos and infected with lentivirus expressing Cre recombinase (FCIV-Cre) or GFP only (FUGW control). Lentiviral infection of cortical neurons was monitored by GFP fluorescence (A). […] Lkb1 flox/flox cortical neurons were infected with FUGW or FCIV-Cre and treated as indicated. AMPK or ACC was immunoprecipitated from neuronal lysates and western blots were probed with the respective phospho-specific antibodies. […] Lysates from AICAR treated cortical neurons is included as a positive control. (E, F) Embryonic cortical neurons were cultured from wild type and SIRT1-deficient littermates derived from SIRT1 heterozygous matings. […] Levels of total AMPK and ACC are shown in the bottom panels of C, D, E and F.
as §1, §2
Resveratrol activation of AMPK in Neuro2a cells along with the crucial role of AMPK in promoting neurite outgrowth in these cells encouraged us to examine this pathway in primary neurons. We treated E13.5 mouse dorsal root ganglia (DRG) sensory and cortical neuron cultures with resveratrol (10 μM) or AICAR (1 mM). […]

For `CC(NC(=O)c1ccccc1/N=C/c1c(O)ccc2ccccc12)c1ccccc1` (stereo not drawn) [Sirtinol], in assay [1], the “effect on resveratrol-mediated activation of AMPK (AMPK and ACC phosphorylation)” value (“effect … (AMPK and ACC phosphorylation)” for short) is reported as “None of the SIRT1 inhibitors attenuated”. Besides, the “effect on resveratrol-induced AMPK phosphorylation” value in assay [2] and in assay [3] was “none of the SIRT inhibitors” each time.

Take `O=C(O)c1ccc2c3c1cccc3c(=O)n1c3ccccc3nc21` [STO 609]: the “effect … (AMPK and ACC phosphorylation)” value in assay [1] is “had no effect”. In addition, the “effect on resveratrol-induced AMPK phosphorylation” value in assay [2] was “had no effect”; in assay [3], “did inhibit AMPK and ACC phosphorylation”.

As to `NC(=O)c1cccnc1` [Nam, nicotinamide], the “effect … (AMPK and ACC phosphorylation)” value in assay [1] is on record as “None of the SIRT1 inhibitors attenuated”. The “effect on resveratrol-induced AMPK phosphorylation” value in assay [2] and in assay [3] was “none of the SIRT inhibitors” each time.

For `Oc1ccc(C=Cc2cc(O)cc(O)c2)cc1` [resveratrol], the AMPK phosphorylation entry in assay [1] (resveratrol 10 μM or AICAR 1 mM, 2 h up to 72 h) was “robust increase in AMPK Thr172 phosphorylation”. Moreover, the “phosphorylation of AMPK and ACC” value was “stimulated phosphorylation of AMPK and ACC” in assay [2] (E13.5 DRG sensory neurons, 10 μM); “stimulated phosphorylation of AMPK and ACC” in assay [3] (E13.5 cortical neurons, 10 μM).

As to `O=C1CCc2c(ccc3ccccc23)O1` [splitomycin], the “effect … (AMPK and ACC phosphorylation)” value in assay [1] is listed as “None of the SIRT1 inhibitors attenuated”. Further, the “effect on resveratrol-induced AMPK phosphorylation” value in assay [2] and in assay [3] was “none of the SIRT inhibitors” each time.
